{
  "source": "patent US8916340B2",
  "about": "“Method for identifying and validating dominant T helper cell epitopes using an HLA-DM-assisted class II binding assay” (The John Hopkins University, priority 2006, dated 2014)",
  "origin": "cited, not measured here",
  "target": "HLA-DR1 (Homo sapiens, UniProt P01903+P01911)",
  "sequence (P01903 26-216, other chains not shown)": "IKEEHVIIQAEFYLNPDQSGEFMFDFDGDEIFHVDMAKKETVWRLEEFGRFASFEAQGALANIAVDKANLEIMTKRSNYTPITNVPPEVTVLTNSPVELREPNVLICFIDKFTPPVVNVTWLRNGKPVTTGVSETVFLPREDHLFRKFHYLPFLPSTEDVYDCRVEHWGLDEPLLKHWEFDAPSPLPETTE",
  "conditions": "short-lived, DM-sensitive complex of peptide with HLA-DR1",
  "data": [
    {"sequence": "PKAVKQNTLKLAT [HAy308A]", "values": [
      {"measurement": "t1/2 of complex with HLA-DR1", "result": 34, "unit": "min"}
    ]}
  ]
}
